Assays:
U87 glioblastoma cells = test system: U87 glioblastoma cells; design: method as in PMID 36373493; conditions: protons at 675 keV, dose 9 Gy; cited from earlier work
[1] = test system: MDA-MB-231 breast cancer cells; assay: MTT cell viability / cytotoxic activity; type: cell-based; conditions: MDA-MB-231, MTT, mean ± SD of two independent experiments
Experimental: MDA-MB-231 breast cancer cells were purchased from American Type Culture Collection (ATCC, HTB-26). Cells were cultured in DMEM medium supplemented with 10% fetal bovine serum (FBS) and incubated at 37 °C in a humidified 5% CO2 atmosphere. Na[o-COSAN] stock solutions at 1 mM were prepared in DMEM medium without supplements and kept at -20 °C. Cell viability was assessed using the MTT assay following a method similar to the one previously described. Briefly, MDA-MB-231 cells (0.8 − 5 × 10^4 cells/well) were seeded in 96-well plates and left to adhere. After 24 h, cells were incubated with increasing concentrations of Na[o-COSAN] from 1 µM to 1000 µM for 6 and 24 h. After incubation, the medium was removed, and each well was incubated with an MTT solution (0.5 mg/mL in medium) for 3 h at 37 °C. Then, the medium was discarded, and the formazan crystals were solubilized in 200 µL DMSO. Absorbance was measured at 570 nm using an Varioskan TM LUX microplate reader (Thermo Scientific, Waltham, MA, USA). The dose-response curve fit of the absorbance as a function of log10[concentration] was performed using GraphPad Prism software (version 9.5.1) to assess viability and IC50 (concentration at which half the cell population is expected to die) at 6 and 24 h. […]

MDA-MB-231 cells [2] = assay: Cellular uptake by nuclear microscopy (STIM, PIXE, EBS), Co as signature; type: cell-based
Experimental: MDA-MB-231 cells (10^4-10^5 cells) were seeded on 100 nm thick silicon nitride (Si3N4) membranes (Silson Ltd., UK), allowed to adhere, and incubated for 24 h in medium containing Na[o-COSAN] at 50 µM. The culture medium was removed and the monolayer of cells on the membranes was washed with cold PBS, immediately frozen at -80 °C, transferred to a cryostat at -25 °C and allowed to dry overnight for subsequent analysis of [o-COSAN]^− uptake. […] Briefly, a 2.0 MeV focused proton beam of 3 × 4 µm^2 was raster scanned across the target cell on the silicon nitride window, simultaneously delivering images of density by STIM (Scanning Transmission Ion Microscopy), elemental distributions by PIXE (Particle Induced X-ray Emission) and matrix constituents by EBS (Elastic Backscattering Spectroscopy). Spectra recorded and/or extracted from maps in selected regions of the cell allowed Co concentrations to be determined in major cell compartments, such as the cytoplasm and nucleus. At least three cells treated with Na[o-COSAN] at a concentration of 50 µM were analyzed, and Co concentrations were measured using a minimum of five spectra acquired from both the nucleus and cytoplasm regions. The average concentrations for each of these regions were calculated based on the individual spectra. Data acquisition, spectra processing and concentration calculation were performed using the OMDAQ-3 program (Oxford Microbeams Ltd., UK) (http://www.microbeams.co.uk/ Accessed 12-6-2024). Elemental concentrations are expressed as µg/g dry weight.
The uptake of [o-COSAN]^− in single MDA-MB-231 cells was analysed using a combination of nuclear microscopy techniques: STIM, PIXE, and EBS. These techniques allow correlative imaging and quantification of elemental distributions. […] These morphological details were essential for correlating with the elemental distributions obtained from PIXE and assessing localization. […] Therefore, considering the stoichiometry of the carborane cluster [C2B9H11]^−2.in the [o-COSAN]^− molecule, the boron-11 (^11B) content can be estimated. […] This is important information provided by nuclear microscopy. It will be needed for future advanced dosimetry studies, including PBFR.

[3] = test system: MDA-MB-231 tumor-bearing mice; assay: Biodistribution, boron by ICP-OES in MDA-MB-231 xenograft model; type: in vivo, mice (Balb/cSlc-nu/nu); conditions: 7.5 mgB/kg intravenously
Experimental: MDA-MB-231 tumor-bearing mice (Balb/cSlc-nu/nu, female, 5–6 weeks old, 14–20 g, Sankyo Labo Service Co., Ltd., Japan) were prepared by injecting subcutaneously (s.c.) a suspension of MDA-MB-231 cells (8.0 × 10^5 cells/mouse) directly into the right thigh. The mice were kept on a regular chow diet and water and maintained under 12 h light/dark cycle in an ambient atmosphere. When the tumor diameter became 5 to 7 mm, the mice were injected via the tail vein with a 200 µL PBS solution of Na[o-COSAN] (7.5 mgB/kg). At 1 h after injection, the mice were lightly anesthetized, and blood samples were collected by cardiac puncture. The mice were then sacrificed by cervical dislocation and dissected. Heart, liver, lung, kidney, spleen, muscle, brain and tumor were excised, washed with 0.9% NaCl solution, and weighed. The excised organs were digested with 1 mL of HNO3 at 90 °C for 1 h, and then the digested samples were diluted with distilled water. After filtering through a hydrophobic filter, boron concentration was measured by an inductively coupled plasma optical emission spectroscopy (ICP-OES, iCAP 7400 Duo, Thermo Fisher Scientific Inc., USA). All animal experiments were conducted in accordance with the Guide for the Care and Use of Laboratory Animals approved by the Animal Use Review Board and Ethical Committee of Tokyo Institute of Technology (Permission number: D2021007).
The biodistribution studies provide important preclinical information regarding the identity of the potential target organs and tissues. Na[o-COSAN] (7.5 mgB/kg) was administrated intravenously to MDA-MB-231 breast cancer xenograft model mice, and boron uptake in the target organs was evaluated at 1 and 4 h post-injection.

MDA-MB-231 cells [4] = assay: Clonogenic cell survival after proton irradiation (PBFR, 675 keV); type: cell-based; conditions: for surviving fraction vs control irradiated cells: 24 h incubation, 8 Gy protons, p < 0.05
Experimental: (§1) Proton irradiation was performed in air using the external microbeam facility at the Van de Graaff accelerator of the CTN/IST. Briefly, a focused 2.0 MeV proton beam of ∼70 × 70 µm^2 was used and rastered scanned over a cell monolayer placed in a cell plate, positioned prependicular to the proton beam path. The raster scan duration and the irradiation time of 10 s ensured irradiation homogeneity. The maximum achievable scan area is in the range of 0.08–0.13 cm^2 (corresponding to 40% of the total area of one well, 0.32 cm^2, in a 96-well plate). A proton beam current in the pA range was used, corresponding to a proton intensity of 2–6 × 10^6 protons/s. Prior to irradiation, part of the culture medium was removed, as described elsewhere. The proton beam energy was tuned to 675 keV (main resonance energy of the proton-boron nuclear reaction) within the cell layer by controlling the air path length and using Mylar^R foils as attenuators. The details of the irradiation geometry are described above and illustrated in Fig. 2.
MDA-MB-231 cells were seeded in each well of a 6 well plate and incubated for 24 h. Cells were incubated with 50 and 100 µM of Na[o-COSAN], for 24 h at 37 °C, and then irradiated with protons, as described in 2.3.1. After irradiation, fresh medium was added and cells were incubated for 7 days in the same conditions. After 7 days of incubation, the medium was aspirated and cells were fixed and stained with Giemsa’s azur eosin methylene blue solution diluted 5% v/v in buffer solution. Finally, colonies were manually counted. Moreover, a CellProfiler pipeline was used to check the size of the different colonies observed in order to assess whether proton irradiation interfered with the capacity of replication of MDA-MB-231 cells.
The efficiency of [o-COSAN]^- was evaluated after irradiation with 8 Gy of protons in MDA-MB-231 cells. The irradiation with protons was carried out assuming that the proton-boron nuclear reaction resonance energy of 675 keV was reached within the cell monolayer.

MDA-MB-231 cells [5] = assay: γ-H2AX foci quantification after proton irradiation; type: cell-based
Experimental: as §1
MDA-MB-231 cells were seeded at a density of 10,000 cells per well in an eight-well chamber slide and allowed to attach overnight. Cells were incubated with 50 and 100 µM of Na[o-COSAN], for 24 h at 37 °C, and then irradiated with protons, as described in 2.4. MDA-MB-231 cells were washed three times with PBS and fixed with 4% formaldehyde in PBS for 15 min. After washing with PBS, cells were permeabilized with Triton X-100 (0.5%) at room temperature for 5 min followed by two washing steps with 1% BSA in PBS. Then, cells were incubated with an anti-γ-H2AX primary antibody (mouse anti-γ-H2AX (ser139), Stressgen) at 2 µg/mL for 1 h. […] Cells were analyzed at under ×64 magnification. Several high-quality 2D images were randomly collected in each slide and analyzed using a modified Speckle Count pipeline from the freeware CellProfiler. At least 200 nuclei were analyzed per experiment per dose. […]
The efficiency of [o-COSAN]^- was evaluated after irradiation with 8 Gy of protons in MDA-MB-231 cells. […]

[6] = design: method as in doi:10.1021/cr00010a005, PMID 34944987, PMID 34576098; conditions: cited from earlier work

## ferrabis(dicarbollide) [Na[o-FESAN]]
U87 glioblastoma cells
  cell viability and survival after proton irradiation: significant loss of cell viability and survival

## sodium salt of cobaltabisdicarbollide [Na[o-COSAN]]
[1]; 6 h incubation
  IC50: 245 ± 94 µM
[1]; 24 h incubation
  IC50: 137 µM
MDA-MB-231 cells [2]; 24 h, 50 µM, Fig. 3C
  Co concentration, nucleus compared to cytoplasm: significantly higher concentrations of Co in the nucleus compared to the cytoplasm
MDA-MB-231 cells [2]; estimated from Co concentration and cluster stoichiometry, 24 h, 50 µM
  11B content in the nucleus: 425 µg/g
MDA-MB-231 cells [2]; estimated from Co concentration, 24 h, 50 µM
  11B atoms in the nuclear volume of a single cell: approximately 2.3 × 10^9 atoms
MDA-MB-231 cells [2]; single MDA-MB-231 cells, 24 h incubation with 50 µM, PIXE, dry weight
  average Co concentration in the nucleus: 153 µg/g
[3]; 1 and 4 h post-injection
  tumor boron uptake: high and maintained after 4 h
[3]; 1 h post-injection
  boron accumulation in liver and lungs: significant accumulation of boron
[3]; 1 h post-injection, relative to liver and lungs
  boron accumulation in kidney and spleen: less
[3]; 4 h post-injection
  boron in target organs after 4 h: considerable clearance of boron
MDA-MB-231 cells [4]; 50 µM
  surviving fraction vs control irradiated cells: significant decrease
MDA-MB-231 cells [4]; 100 µM
  surviving fraction vs control irradiated cells: significant decrease
MDA-MB-231 cells [4]; 100 µM, irradiated 8 Gy protons, p < 0.001
  decrease of average colony size vs cells irradiated with protons in the absence of compound: 40%
MDA-MB-231 cells [4]; 100 µM, irradiated 8 Gy protons, p < 0.01
  decrease of average colony size vs non-irradiated counterparts: 30%
MDA-MB-231 cells [4]; non-irradiated, vs control conditions
  effect on surviving fraction of treated non-irradiated cells: minor cytostatic effects
MDA-MB-231 cells [5]; irradiated cells (8 Gy protons) incubated with 50 µM
  increase in average number of γ-H2AX foci: 55%
MDA-MB-231 cells [5]; irradiated cells (8 Gy protons) incubated with 100 µM
  increase in average number of γ-H2AX foci: 27%
MDA-MB-231 cells [5]; non-irradiated cells
  γ-H2AX foci induction without irradiation: does not induce new γ-H2AX foci
[6]
  stability: remarkably stable
  water solubility: water-soluble
